For 21 molecules, EC50 results are on record in patent publication US20230391760A1, “HETEROCYCLIC GLP-1 AGONISTS” (Gasherbrum Bio, Inc., priority 2020, published 2023).

In general, EC50 refers to the midpoint of the concentration-response curve. A higher EC50 goes with lower potency in that assay.

Structures are written as SMILES.

Chain of GLP-1 Receptor (P43220 24-463, species assumed): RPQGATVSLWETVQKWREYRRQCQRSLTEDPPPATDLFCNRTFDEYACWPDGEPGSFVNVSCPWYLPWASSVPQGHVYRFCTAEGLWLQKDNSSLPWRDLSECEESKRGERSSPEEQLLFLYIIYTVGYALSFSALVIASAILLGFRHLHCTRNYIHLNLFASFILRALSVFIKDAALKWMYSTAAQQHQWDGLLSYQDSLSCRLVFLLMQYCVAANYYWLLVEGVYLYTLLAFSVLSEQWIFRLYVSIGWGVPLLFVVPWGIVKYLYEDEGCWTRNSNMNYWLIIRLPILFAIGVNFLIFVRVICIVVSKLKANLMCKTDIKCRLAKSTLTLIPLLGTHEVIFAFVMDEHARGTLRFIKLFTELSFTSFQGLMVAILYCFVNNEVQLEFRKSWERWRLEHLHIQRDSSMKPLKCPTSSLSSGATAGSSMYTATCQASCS

In the experiment the target is GLP-1 Receptor (Homo sapiens, UniProt P43220). Description: GLP-1R agonist cAMP stimulation assay (HEK293/GLP1R/CRE-LUC cells, cAMP dynamic 2 Kit). To be noted: HEK293/CRE-Luc cell line stably expressing the GLP-1 Receptor, 30 min at 37° C. It counts as cell-based. The method, boiled down:
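cAMP measured by HTRF competition (d2-labelled cAMP with cryptate antibody, 1 h, room temperature, protected from light). Before that, GLP1R/CRE-Luc HEK293 cells (1000/well) were exposed for 30 min at 37 °C to half-log compound dilutions in DPBS containing IBMX 0.5 mM and BSA 0.1%.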
`Fc1cc(Cl)ccc1COc1ncccc1C1CCN(Cc2nc3cc(-c4nnc(C(F)(F)F)[nH]4)ccc3n2C[C@@H]2CCO2)CC1` [Compound 393a, 2-[(4-{2-[(4-chloro-2-fluorophenyl)methoxy]pyridin-3-yl}piperidin-1-yl)methyl]-1-{[(2S)-oxetan-2-yl]methyl}-5-[5-(trifluoromethyl)-4H-1,2,4-triazol-3-yl]-1H-1,3-benzodiazole] returned an EC50 of 63 pM.
`CC1(c2ccc(Cl)cc2F)Oc2cccc(C3CCN(Cc4nc5cc(-c6nnc(C(F)(F)F)[nH]6)cnc5n4C[C@H]4CCCO4)CC3)c2O1` (stereo partly drawn) [Compound 245a, 4-[2-(4-chloro-2-fluorophenyl)-2-methyl-2H-1,3-benzodioxol-4-yl]-1-[(3-{[(2R)-oxolan-2-yl]methyl}-6-[5-(trifluoromethyl)-4H-1,2,4-triazol-3-yl]-3H-imidazo[4,5-b]pyridin-2-yl)methyl]piperidine] showed a concentration giving a half-maximal response (EC50) of 2600 pM.
The molecule `O=c1[nH]c(-c2cc3nc(CN4CCN(c5ccc(F)c(OCc6ccc(Cl)cc6F)c5)CC4)n(C[C@@H]4CCO4)c3cn2)no1` [Compound 439a, 3-{2-[(4-{3-[(4-chloro-2-fluorophenyl)methoxy]-4-fluorophenyl}piperazin-1-yl)methyl]-3-{[(2S)-oxetan-2-yl]methyl}-3H-imidazo[4,5-c]pyridin-6-yl}-4,5-dihydro-1,2,4-oxadiazol-5-one] gave an EC50 of 2300 pM. This EC50 and that of the molecule before are within 1.5-fold of each other.
Under `CS(=O)(=O)Nc1ccc2c(c1)nc(CN1CCC(c3cccc(OCc4ccc(Cl)cc4F)n3)CC1)n2C[C@@H]1CCO1` [Compound 108a, (S)—N-(2-((4-(6-((4-chloro-2-fluorobenzyl)oxy)pyridin-2-yl)piperidin-1-yl)methyl)-1-(oxetan-2-ylmethyl)-1H-benzo[d]imidazol-5-yl)methanesulfonamide] stands 155000 pM.
Under `CC1(c2ccc(Cl)cc2F)Oc2cccc(C3CCN(Cc4nc5cc(-c6noc(=O)[nH]6)ccc5n4C[C@@H]4CCO4)CC3)c2O1` (mixture of isomers) [Compound 239a, 3-(2-((4-(2-(4-chloro-2-fluorophenyl)-2-methylbenzo[d][1,3]dioxol-4-yl)piperidin-1-yl)methyl)-1-(((S)-oxetan-2-yl)methyl)-1H-benzo[d]imidazol-5-yl)-1,2,4-oxadiazol-5(4H)-one] stands 71 pM; under `Fc1cc(Cl)ccc1COc1nc(N2CCN(Cc3nc4cc(-c5nnc(C(F)(F)F)[nH]5)cnc4n3C[C@@H]3CCO3)CC2)ccc1F` [Compound 516a, 1-{6-[(4-chloro-2-fluorophenyl)methoxy]-5-fluoropyridin-2-yl}-4-[(3-{[(2S)-oxetan-2-yl]methyl}-6-[5-(trifluoromethyl)-4H-1,2,4-triazol-3-yl]-3H-imidazo[4,5-b]pyridin-2-yl)methyl]piperazine], 18 pM.
As to `O=C(CC1CC1)Nc1ccc2c(c1)nc(CN1CCC(c3cccc(OCc4ccc(Cl)cc4F)n3)CC1)n2C[C@@H]1CCO1` [Compound 106a, (S)—N-(2-((4-(6-((4-chloro-2-fluorobenzyl)oxy)pyridin-2-yl)piperidin-1-yl)methyl)-1-(oxetan-2-ylmethyl)-1H-benzo[d]imidazol-5-yl)-2-cyclopropylacetamide], a half-maximal response (EC50) required 1190 pM. Against the preceding molecule, the EC50 is about 66-fold higher.
Under `Fc1cc(C(F)(F)F)ccc1COc1cccc(C2CCN(Cc3nc4cc(-c5nnc(C(F)(F)F)[nH]5)ncc4n3C[C@@H]3CCO3)CC2)n1` [Compound 497a, 2-{[2-fluoro-4-(trifluoromethyl)phenyl]methoxy}-6-{1-[(3-{[(2S)-oxetan-2-yl]methyl}-6-[5-(trifluoromethyl)-4H-1,2,4-triazol-3-yl]-3H-imidazo[4,5-c]pyridin-2-yl)methyl]piperidin-4-yl}pyridine] stands 34 pM; under `Fc1cc(Cl)ccc1COc1nccc(C2CCN(Cc3nc4cc(-c5nnc(C(F)(F)F)[nH]5)nnc4n3C[C@@H]3CCO3)CC2)n1` [Compound 508a, 2-[(4-chloro-2-fluorophenyl)methoxy]-4-{1-[(7-{[(2S)-oxetan-2-yl]methyl}-3-[5-(trifluoromethyl)-4H-1,2,4-triazol-3-yl]-7H-imidazo[4,5-c]pyridazin-6-yl)methyl]piperidin-4-yl}pyrimidine], 420 pM.
Under `C[C@H]1CN(c2cccc(OCc3ccc(Cl)cc3F)n2)CCN1Cc1nc2cc(-c3nnc(C(F)(F)F)[nH]3)ncc2n1C[C@@H]1CCO1` [Compound 480a, (2S)-4-{6-[(4-chloro-2-fluorophenyl)methoxy]pyridin-2-yl}-2-methyl-1-[(3-{[(2S)-oxetan-2-yl]methyl}-6-[5-(trifluoromethyl)-4H-1,2,4-triazol-3-yl]-3H-imidazo[4,5-c]pyridin-2-yl)methyl]piperazine] stands 18 pM.
In the case of `Fc1cc(Cl)ccc1COc1cccc(C2CCN(Cc3nc4cc(-c5cn[nH]n5)ccc4n3C[C@@H]3CCO3)CC2)n1` [Compound 149a, 2-[(4-{6-[(4-chloro-2-fluorophenyl)methoxy]pyridin-2-yl}piperidin-1-yl)methyl]-1-{[(2S)-oxetan-2-yl]methyl}-5-(2H-1,2,3-triazol-4-yl)-1H-1,3-benzodiazole], a half-maximal response (EC50) required 4800 pM.
In turn, `N#Cc1ccc(COc2ccc(F)c(N3CCN(Cc4nc5cc(-c6nnc(C(F)(F)F)[nH]6)nnc5n4C[C@@H]4CCO4)CC3)n2)c(F)c1` [Compound 503a, 3-fluoro-4-{[(5-fluoro-6-{4-[(7-{[(2S)-oxetan-2-yl]methyl}-3-[5-(trifluoromethyl)-4H-1,2,4-triazol-3-yl]-7H-imidazo[4,5-c]pyridazin-6-yl)methyl]piperazin-1-yl}pyridin-2-yl)oxy]methyl}benzonitrile] showed an EC50 of 78 pM.
Under `C[C@]1(c2ccc(Cl)cc2F)Oc2cccc(C3CCN(Cc4nc5cc(-c6nnc(C(F)(F)F)[nH]6)ncc5n4C[C@@H]4CCCO4)CC3)c2O1` [Compound 426a, 4-[(2S)-2-(4-chloro-2-fluorophenyl)-2-methyl-2H-1,3-benzodioxol-4-yl]-1-[(3-{[(2S)-oxolan-2-yl]methyl}-6-[5-(trifluoromethyl)-4H-1,2,4-triazol-3-yl]-3H-imidazo[4,5-c]pyridin-2-yl)methyl]piperidine] stands 88 pM; under `CC1(c2ccc(Cl)cc2F)Oc2cccc(C3CCN(Cc4nc5cc(-c6n[nH]c(=O)s6)ccc5n4C[C@@H]4CCO4)CC3)c2O1` (stereo partly drawn) [Compound 221a, 5-[2-({4-[2-(4-chloro-2-fluorophenyl)-2-methyl-2H-1,3-benzodioxol-4-yl]piperidin-1-yl}methyl)-1-{[(2S)-oxetan-2-yl]methyl}-1H-1,3-benzodiazol-5-yl]-2,3-dihydro-1,3,4-thiadiazol-2-one], 7400 pM.
Under `Fc1cc(Cl)ccc1[C@H]1COc2cccc(C3CCN(Cc4nc5cc(-c6nnc(C(F)(F)F)[nH]6)nnc5n4C[C@@H]4CCO4)CC3)c2O1` [Compound 523a, 4-[(3S)-3-(4-chloro-2-fluorophenyl)-2,3-dihydro-1,4-benzodioxin-5-yl]-1-[(7-{[(2S)-oxetan-2-yl]methyl}-3-[5-(trifluoromethyl)-4H-1,2,4-triazol-3-yl]-7H-imidazo[4,5-c]pyridazin-6-yl)methyl]piperidine] stands 140 pM.
Under `CC1(c2ccc(Cl)cn2)Oc2cccc(C3CCN(Cc4nc5cc(-c6nnc(C(F)(F)F)[nH]6)ccc5n4C[C@@H]4CCO4)CC3)c2O1` (stereo partly drawn) [Compound 257a, 2-({4-[2-(5-chloropyridin-2-yl)-2-methyl-2H-1,3-benzodioxol-4-yl]piperidin-1-yl}methyl)-1-{[(2S)-oxetan-2-yl]methyl}-5-[5-(trifluoromethyl)-4H-1,2,4-triazol-3-yl]-1H-1,3-benzodiazole] stands 98 pM; under `CC1(c2ccc(Cl)cc2F)Oc2cccc(C3CCN(Cc4nc5cc(-c6nnc(C(F)(F)F)[nH]6)cnc5n4C[C@@H]4CCO4)CC3)c2O1` (mixture of isomers) [Compound 224a, 4-[2-(4-chloro-2-fluorophenyl)-2-methyl-2H-1,3-benzodioxol-4-yl]-1-[(3-{[(2S)-oxetan-2-yl]methyl}-6-[5-(trifluoromethyl)-4H-1,2,4-triazol-3-yl]-3H-imidazo[4,5-b]pyridin-2-yl)methyl]piperidine], 18 pM.
Regarding `CC1(c2ccc(Cl)cc2F)Oc2cccc(C3CCN(Cc4nc5cc(-c6nnc(C(F)F)[nH]6)ccc5n4C[C@@H]4CCO4)CC3)c2O1` (stereo partly drawn) [Compound 227a, 2-({4-[2-(4-chloro-2-fluorophenyl)-2-methyl-2H-1,3-benzodioxol-4-yl]piperidin-1-yl}methyl)-5-[5-(difluoromethyl)-4H-1,2,4-triazol-3-yl]-1-{[(2S)-oxetan-2-yl]methyl}-1H-1,3-benzodiazole], the EC50 came out at 94 pM.
As to `N#Cc1ccc(COc2cc(N3CCN(Cc4nc5cc(-c6nnc(C(F)(F)F)[nH]6)ncc5n4C[C@@H]4CCO4)CC3)ccc2F)c(F)c1` [Compound 469a, 3-fluoro-4-[(2-fluoro-5-{4-[(3-{[(2S)-oxetan-2-yl]methyl}-6-[5-(trifluoromethyl)-4H-1,2,4-triazol-3-yl]-3H-imidazo[4,5-c]pyridin-2-yl)methyl]piperazin-1-yl}phenoxy)methyl]benzonitrile], the EC50 came out at 87 pM.
As for `CC1(c2ccc(Cl)cc2F)Oc2c(F)ccc(C3CCN(Cc4nc5cc(-c6nnc(C(F)(F)F)[nH]6)ncc5n4C[C@@H]4CCO4)CC3)c2O1` (stereo partly drawn) [Compound 459a, 4-[2-(4-chloro-2-fluorophenyl)-7-fluoro-2-methyl-2H-1,3-benzodioxol-4-yl]-1-[(3-{[(2S)-oxetan-2-yl]methyl}-6-[5-(trifluoromethyl)-4H-1,2,4-triazol-3-yl]-3H-imidazo[4,5-c]pyridin-2-yl)methyl]piperidine], a half-maximal effect (EC50) was put at 8.8 pM.
As for `Fc1cc(Cl)ccc1COc1nc(N2CCN(Cc3nc4cc(-c5nnc(C(F)(F)F)[nH]5)ncc4n3C[C@@H]3CCO3)CC2)ncc1F` [Compound 490a, 4-[(4-chloro-2-fluorophenyl)methoxy]-5-fluoro-2-{4-[(3-{[(2S)-oxetan-2-yl]methyl}-6-[5-(trifluoromethyl)-4H-1,2,4-triazol-3-yl]-3H-imidazo[4,5-c]pyridin-2-yl)methyl]piperazin-1-yl}pyrimidine], a half-maximal effect (EC50) was put at 86 pM.
